Experimental data taken from US20230049130A1, “DEUCRAVACITINIB CRYSTAL FORM, PREPARATION METHOD THEREFOR AND USE THEREOF” (CRYSTAL PHARMACEUTICAL (SUZHOU) CO., LTD., priority 2020, published 2023).
One block for each compound: values may come before it.

Assays:
Assay type in all cases: physicochemical
[1] = Kinetic solubility in SGF, FeSSIF and FaSSIF (HPLC)
Protocol: When solubility test is used to predict the in vivo performance of a drug, it is critical to simulate in vivo conditions as closely as possible. Simulated gastric fluid (SGF), Fed-state simulated intestinal fluid (FeSSIF) and Fasted-state simulated intestinal fluid (FaSSIF) can be used to simulate the conditions in vivo and predict the effects of eating, thus solubilities in these media are closer to those in vivo.
15-20 mg of Form CSIII of the present disclosure and 15-20 mg of Form A were suspended into 2.5 mL of SGF, 2.5 mL of FeSSIF, and 2.5 mL of FaSSIF to get suspensions. After equilibrated for 1 h and 4 h, concentrations of these solutions were measured by HPLC.

[2] = Bulk and tapped density; details: for Bulk density: about 500 mg powder in 5-mL cylinder; for Tapped density: tapped 1250 times
Protocol: About 500 mg of powder were added into a 5-mL measuring cylinder and bulk volume was recorded. Then the powder was tapped for 1250 times by ZS-2E tap density tester to make it in the tightest state and the tapped volume was recorded. The bulk density and tapped density were calculated.

[3] = Stability of Form CSIII on storage (XRPD, HPLC purity); details: for Crystalline form after storage: XRPD
Protocol: Approximately 5 mg of Form CSIII samples was stored under different conditions of 25° C./60%RH, 40° C./75%RH, and 60° C./75%RH. Crystalline form and chemical purity were checked by XRPD and HPLC, respectively.

[4] = Physical stability under pressure (tableting, XRPD); details: compressed under 5 kN, 10 kN and 20 kN
Excerpt: A certain amount of Form CSIII was compressed into tablets under 5 kN, 10 kN and 20 kN with suitable tableting die. Crystalline forms before and after tableting were checked by XRPD.

[5] = Physical stability upon grinding (XRPD); details: ground manually 5 minutes in a mortar
Protocol: Form CSIII sample was grounded manually for 5 minutes in a mortar. Crystalline forms before and after grinding were checked by XRPD.

[6] = Physical stability upon humidity change (DVS, XRPD); details: cycle of 0%-95%-0%RH at 25° C.
Protocol: Dynamic Vapor Sorption (DVS) is measured via an SMS (Surface Measurement Systems Ltd.) intrinsic DVS instrument. Its control software is DVS- Intrinsic control software, and its analysis software is DVS-Intrinsic Analysis software. Typical Parameters for DVS test are as follows: • Temperature: 25° C. • Gas and flow rate: N2, 200 mL/min • RH range: 0% RH to 95% RH
Dynamic vapor sorption (DVS) was applied to test the stability of Form CSIII. A certain amount of Form CSIII was tested in a cycle of 0%-95%-0%RH at 25° C.

[7] = applicant's characterisation of repeated prior-art form

Concentration ([1]; FaSSIF, equilibrated 1 hour): 13.5 µg/mL | Concentration ([1]; FaSSIF, equilibrated 4 hours): 13.6 µg/mL | Concentration ([1]; FeSSIF, equilibrated 1 hour): 82.3 µg/mL | Concentration ([1]; FeSSIF, equilibrated 4 hours): 68.8 µg/mL | Concentration ([1]; SGF, equilibrated 1 hour): 1114.1 µg/mL | Concentration ([1]; SGF, equilibrated 4 hours): 617.2 µg/mL | Solubility (in words) [1, 7]: poor solubility | Bulk density [2]: 0.3899 g/mL | Density (in words) [2, 7]: low density | Tapped density [2]: 0.5199 g/mL
Structure (SMILES): [2H]C([2H])([2H])NC(=O)c1nnc(NC(=O)C2CC2)cc1Nc1cccc(-c2ncn(C)n2)c1OC [Form A, 6-(cyclopropanecarboxamido)-4-((2-methoxy-3-(1-methyl-1H-1,2,4-triazol-3-yl)phenyl)amino)-N-(methyl-d3) pyridazine-3-carboxamide, reference compound]

Concentration ([1]; FaSSIF, equilibrated 1 hour): 49 µg/mL | Solubility relative to that of Form A ([1]; FaSSIF, equilibrated 1 hour): 3.6 times | Concentration ([1]; FaSSIF, equilibrated 4 hours): 55.7 µg/mL | Solubility relative to that of Form A ([1]; FaSSIF, equilibrated 4 hours): 4.1 times | Concentration ([1]; FeSSIF, equilibrated 1 hour): 193.6 µg/mL | Concentration ([1]; FeSSIF, equilibrated 4 hours): 179.3 µg/mL | Concentration ([1]; SGF, equilibrated 1 hour): 1582.4 µg/mL | Concentration ([1]; SGF, equilibrated 4 hours): 1296.8 µg/mL | Time stable on storage ([3]; 25° C./60% RH): at least 3 months | Crystalline form after storage ([3]; 25° C./60%RH (open), 3 months): Form CSIII | Crystalline form after storage ([3]; 25° C./60%RH (sealed), 3 months): Form CSIII | Time stable on storage ([3]; 40° C./75% RH): at least 3 months | Crystalline form after storage ([3]; 40° C./75%RH (open), 3 months): Form CSIII | Crystalline form after storage ([3]; 40° C./75%RH (sealed), 3 months): Form CSIII | Time stable on storage ([3]; 60° C./75% RH): at least one month | Change in chemical purity during storage ([3]; 60° C./75% RH, one month, open condition, HPLC): 0.07% | Crystalline form after storage ([3]; 60° C./75%RH (open), one month): Form CSIII | Crystalline form after storage ([3]; 60° C./75%RH (sealed), one month): Form CSIII | Crystalline state after tableting [4]: does not change | Crystalline state after grinding [5]: does not change | Crystalline state after DVS test [6]: does not change | Bulk density [2]: 0.4276 g/mL | Tapped density [2]: 0.5987 g/mL
Structure (SMILES): [2H]C([2H])([2H])NC(=O)c1nnc(NC(=O)C2CC2)cc1Nc1cccc(-c2ncn(C)n2)c1OC [Form CSIII, 6-(cyclopropanecarboxamido)-4-((2-methoxy-3-(1-methyl-1H-1,2,4-triazol-3-yl)phenyl)amino)-N-(methyl-d3) pyridazine-3-carboxamide]
